In patent US7109186B2 (Bristol-Myers Squibb Company, priority 2002, dated 2006):

Tests used:
HIV-integrase = target: T1, HIV-integrase (Human immunodeficiency virus type 1 group M subtype B, UniProt P04585); experiment: HIV integrase SPA integration assay (biotin-labeled substrate DNA on streptavidin SPA beads, P33-labeled target DNA); type: biochemical; settings: percent inhibition of HIV-integrase in the presence of 20 μM of compound
T1 construct: 0.26 ng of recombinant integrase was incubated with the beads for 90 min at 37 C
Protocol: For each reaction, 5 pmole of biotin labeled substrate DNA was bound to 100 ug of Streptavidin coated PVT SPA beads (Amersham Pharmacia Biotech). 0.26 ng of recombinant integrase was incubated with the beads for 90 min at 37 C. Unbound enzyme was removed by washing the complex followed by addition of inhibitors and 0.1 fmol of P33 labeled target DNA. Reaction was stopped by adding EDTA to a final concentration of 10 mM. Samples were counted in TopCountNXT (Packard) and the CPM was used as a measure of integration. Reaction condition was as described in A. Engelman and R. Craigie, J. Virol. 69, 5908–5911 (1995). The sequences of substrate and target DNA were described in Nucleic Acid Research 22, 1121–1122 (1994).

Row | melting point | Structure (SMILES) | inhibition at 20 µM (HIV-integrase) [%]
1 | 129 °C (dec.) | CN1CC(C(=O)N(C)CCCc2ccc(F)cc2)=C(O)C1=O | –
2 | 125 °C (dec.) | CON(Cc1ccc(F)cc1)C(=O)C1=C(O)C(=O)N(C)C1 | –
3 | 126 to 128 °C | CN1CC(C(=O)N(C)Cc2ccc(C(F)(F)F)cc2)=C(O)C1=O | –
4 | 106 to 108 °C | CON(CCCc1ccc(Cl)c(Cl)c1)C(=O)C1=C(O)C(=O)N(C)C1 | –
5 | – | CN(Cc1ccc(Cl)c(Cl)c1)C(=O)C1=C(O)C(=O)N(CCCN2CCOCC2)C1 [Compound 43, 4-Hydroxy-1-(3-morpholin-4-yl-propyl)-5-oxo-2,5-dihydro-1H-pyrrole-3-carboxylic acid (3,4-dichloro-benzyl)-methyl-amide] | 99.9
6 | – | CON(Cc1ccc(C(=O)OC(C)(C)C)cc1)C(=O)C1=C(O)C(=O)N(C)C1 [Compound 68-A, 4-{[(4-Hydroxy-1-methyl-5-oxo-2,5-dihydro-1H-pyrrole-3-carbonyl)-methoxy-amino]-methyl}-benzoic acid tert-butyl ester] | 4.5
7 | – | CON(Cc1ccc(F)cc1)C(=O)C1=C(O)C(=O)N(CCN2CCOCC2)C1 [Compound 45, 4-Hydroxy-1-(2-morpholino-4-yl-ethyl)-5-oxo-2,5-dihydro-1H-pyrrole-3-carboxylic acid (4-fluoro-benzyl)-methoxy-amide] | 99.5
8 | – | COC(=O)c1ccc(CN(OC)C(=O)C2=C(O)C(=O)N(C)C2)cc1 [Compound 67, 4-{[(4-Hydroxy-1-methyl-5-oxo-2,5-dihydro-1H-pyrrole-3-carbonyl)-methoxy-amino]-methyl}-benzoic acid methyl ester] | 96.5
9 | – | CN(Cc1ccc(Cl)c(Cl)c1)C(=O)C1=C(O)C(=O)N(CC(=O)NCC(=O)NCCC(=O)NCC(=O)O)C1 [Compound 35, {3-[2-(2-{4-[(3,4-Dichloro-benzyl)-methyl-carbamoyl]-3-hydroxy-2-oxo-2,5-dihydro-pyrrol-1-yl}-acetylamino)-acetylamino]-propionylamino}-acetic acid] | 99.9
10 | – | CN(Cc1ccc(F)cc1)C(=O)C1=C(O)C(=O)N(CCc2ccc(F)cc2)C1 [Compound 9, 1-[2-(4-Fluoro-phenyl)-ethyl]-4-hydroxy-5-oxo-2,5-dihydro-1H-pyrrole-3-carboxylic acid (4-fluoro-benzyl)-methyl amide] | 99.9
11 | – | CN(Cc1ccc(Cl)c(Cl)c1)C(=O)C1=C(O)C(=O)N(CCCCCCC(=O)O)C1 [Compound 28, 7-{4-[(3,4-dichloro-benzyl)-methyl-carbamoyl]-3-hydroxy-2-oxo-2,5-dihydro-pyrrol-1-yl}-heptanoic acid] | 99.9
12 | – | CON(Cc1ccc(F)cc1F)C(=O)C1=C(O)C(=O)N(C)C1 [Compound 60, 4-Hydroxy-1-methyl-5-oxo-2,5-dihydro-1H-pyrrole-3-carboxylic acid (2,4-difluoro-benzyl)-methoxy-amide] | 99.7
13 | – | CN(Cc1ccc(Cl)c(Cl)c1)C(=O)C1=C(O)C(=O)N(CCN2CCOCC2)C1 [Compound 13, 4-Hydroxy-1-(2-morpholin-4-yl-ethyl)-5-oxo-2,5-dihydro-1H-pyrrole-3-carboxylic acid (3,4-dichloro-benzyl)-methyl-amide] | 99.9
14 | 167 °C (dec.) | CON(Cc1ccc(F)cc1C(F)(F)F)C(=O)C1=C(O)C(=O)N(C)C1 | –
15 | – | CON(Cc1ccccc1OC(C)C)C(=O)C1=C(O)C(=O)N(C)C1 [Compound 66, 4-Hydroxy-1-methyl-5-oxo-2,5-dihydro-1H-pyrrole-3-carboxylic acid (2-isopropoxy)-methoxy-amide] | 99
16 | – | CN(Cc1ccc(Cl)c(Cl)c1)C(=O)C1=C(O)C(=O)N(CCC(=O)NCC(=O)O)C1 [Compound 39, (3-{4-[(3,4-Dichloro-benzyl)-methyl-carbamoyl]-3-hydroxy-2-oxo-2,5-dihydro-pyrrol-1-yl}-propionylamino)-acetic acid] | 99.9
17 | – | CON(Cc1ccc(F)c(C#N)c1)C(=O)C1=C(O)C(=O)N(C)C1 [Compound 61, 4-Hydroxy-1-methyl-5-oxo-2,5-dihydro-1H-pyrrole-3-carboxylic acid (3-cyano-4-fluoro-benzyl)-methoxy-amide] | 99.3
18 | – | COC(=O)CCCN1CC(C(=O)N(C)Cc2ccc(Cl)c(Cl)c2)=C(O)C1=O [Compound 33] | 99.9
19 | 119 °C (dec.) | CON(Cc1ccc(C(F)(F)F)cc1)C(=O)C1=C(O)C(=O)N(CCN2CCOCC2)C1 | –
20 | – | CN1CC(C(=O)N(Cc2ccc(F)cc2)Cc2ccc(F)cc2)=C(O)C1=O [Compound 76, 4-Hydroxy-1-methyl-5-oxo-2,5-dihydro-1H-pyrrole-3-carboxylic acid bis-(4-fluoro-benzyl)-amide] | 96
21 | – | CN(Cc1ccc(F)cc1)C(=O)C1=C(O)C(=O)N(CCc2ccccc2Cl)C1 [Compound 3, 1-[2-(Chloro-phenyl)-ethyl]-4-hydroxy-5-oxo-2,5-dihydro-1H-pyrrole-3-carboxylic acid (4-fluoro-benzyl)-methyl amide] | 99.9
22 | – | CNCCN1CC(C(=O)N(C)Cc2ccc(Cl)c(Cl)c2)=C(O)C1=O [Compound 15, 4-Hydroxy-1-(2-methylamino-ethyl)-5-oxo-2,5-dihydro-1H-pyrrole-3-carboxylic acid (3,4-dichloro-benzyl)-methyl-amide] | 99.7
23 | – | CN(Cc1ccc(Cl)c(Cl)c1)C(=O)C1=C(O)C(=O)N(Cc2ccncc2)C1 [Compound 21] | 99.9
24 | – | CN(Cc1ccc(F)cc1)C(=O)C1=C(O)C(=O)N(CCc2ccncc2)C1 [Compound 7, 4-Hydroxy-5-oxo-1-(2-pyridin-4-yl-ethyl)-2,5-dihydro-1H-pyrrole-3-carboxylic acid (4-fluoro-benzyl)-methyl-amide] | 99.9
25 | 145 °C (dec.) | CON(Cc1ccc(C(F)(F)F)cc1)C(=O)C1=C(O)C(=O)N(C)C1 | –
26 | – | CON(Cc1ccc(F)cc1)C(=O)C1=C(O)C(=O)N(CCN2CCNCC2)C1 [Compound 46, 4-Hydroxy-5-oxo-1-(2-piperazin-1-yl-ethyl)-2,5-dihydro-1H-pyrrole-3-carboxylic acid (4-fluoro-benzyl)-methoxy-amide] | 99.3

Row | Structure (SMILES) | melting point | inhibition at 20 µM (HIV-integrase) [%]
27 | CN1CC(C(=O)N(C)C(Cc2ccc(Cl)cc2)Cc2ccc(Cl)cc2)=C(O)C1=O [Compound 75, 4-Hydroxy-1-methyl-5-oxo-2,5-dihydro-1H-pyrrole-3-carboxylic acid [1-(4-chloro-benzyl)-2-(4-chloro-phenyl)-ethyl]-methyl-amide] | 152 to 154 °C | 96.5
28 | CON(Cc1ccc(C)c(F)c1)C(=O)C1=C(O)C(=O)N(C)C1 [Compound 65, 4-Hydroxy-1-methyl-5-oxo-2,5-dihydro-1H-pyrrole-3-carboxylic acid (3-fluoro-4-methyl-benzyl)-methoxy-amide] | 145 °C | 99.9
29 | COc1ccc(CN(OC)C(=O)C2=C(O)C(=O)N(C)C2)cc1 [Compound 55, 4-Hydroxy-1-methyl-5-oxo-2,5-dihydro-1H-pyrrole-3-carboxylic acid methoxy-(4-methoxy-benzyl)-amide] | 135 to 137 °C | 99.9
30 | CON(Cc1ccc(F)c(Br)c1)C(=O)C1=C(O)C(=O)N(C)C1 [Compound 57, 4-Hydroxy-1-methyl-5-oxo-2,5-dihydro-1H-pyrrole-3-carboxylic acid (3-bromo-4-fluoro-benzyl)-methoxy-amide] | 154 to 157 °C (dec.) | 99.9
